Assay results from ChEMBL document CHEMBL6134848, “Deuteration Strategy-Inspired Design of Novel Diarylpyrimidine Derivatives as Potent Non-Nucleoside Reverse Transcriptase Inhibitors Featuring Improved Efficacy, Selectivity, and Druggability” (J Med Chem, 2025).

Columns and labels:
[1] = Cytotoxicity against human MT4 cells assessed as reduction in cell viability by MTT assay; format: toxicity, cell-based
[2] = system: Human immunodeficiency virus 1; test: Antiviral activity against drug-resistant HIV-1 harboring RT RES056 mutant infected in human MT4 cells assessed as protection against virus-induced cytopathicity measured after 5 days post-infection by MTT assay; format: functional, organism-based; conditions: Human immunodeficiency virus 1, MT4, 120 h
[3] = system: Human immunodeficiency virus 1; test: Antiviral activity against drug-resistant HIV-1 harboring RT E138K mutant infected in human MT4 cells assessed as protection against virus-induced cytopathicity measured after 5 days post-infection by MTT assay; format: functional, organism-based; conditions: Human immunodeficiency virus 1, MT4, 120 h
[4] = system: Human immunodeficiency virus 1; test: Antiviral activity against drug-resistant HIV-1 harboring RT L100I mutant infected in human MT4 cells assessed as protection against virus-induced cytopathicity measured after 5 days post-infection by MTT assay; format: functional, organism-based; conditions: Human immunodeficiency virus 1, MT4, 120 h
[5] = Solubility of compound at pH 7; format: physicochemical; conditions: buffer
[6] = Protein binding in human plasma assessed as drug recovery rate at 1 uM incubated for 6 hrs; format: ADME, cell-free; conditions: read-out: Drug recovery
[7] = Metabolic stability in rat liver microsomes assessed as half life at 1 uM measured up to 45 mins by LC/MS/MS analysis; format: ADME, Microsome; conditions: 0.75 h
[8] = Drug metabolism in dog liver microsomes assessed as metabolic fraction at 1 uM measured up to 45 mins by LC/MS/MS analysis; format: ADME, Canis lupus familiaris, Microsome; conditions: liver microsomes, read-out: Fm
[9] = Drug metabolism in human liver microsomes assessed as metabolic fraction at 1 uM measured up to 45 mins by LC/MS/MS analysis; format: ADME, Microsome; conditions: liver microsomes, read-out: Fm
[10] = target: Human immunodeficiency virus type 1 reverse transcriptase (Human immunodeficiency virus 1, UniProt Q72547); test: Inhibition of recombinant wild type HIV-1 reverse transcriptase incubated for 40 mins in presence of poly(rA) template/oligo(dT)16 primer by Pico-Green dye based analysis
[11] = Metabolic stability in dog liver microsomes assessed as half life at 1 uM measured up to 45 mins by LC/MS/MS analysis; format: ADME, Canis lupus familiaris, Microsome; conditions: liver microsomes
[12] = system: Human immunodeficiency virus 1; test: Antiviral activity against drug-resistant HIV-1 harboring RT Y188L mutant infected in human MT4 cells assessed as protection against virus-induced cytopathicity measured after 5 days post-infection by MTT assay; format: functional, organism-based; conditions: Human immunodeficiency virus 1, MT4, 120 h
[13] = Drug metabolism in rat liver microsomes assessed as metabolic fraction at 1 uM measured up to 45 mins by LC/MS/MS analysis; format: ADME, Microsome; conditions: 0.75 h
[14] = system: Human immunodeficiency virus 1; test: Antiviral activity against drug-resistant HIV-1 harboring RT K103N mutant infected in human MT4 cells assessed as protection against virus-induced cytopathicity measured after 5 days post-infection by MTT assay; format: functional, organism-based; conditions: Human immunodeficiency virus 1, MT4, 120 h
[15] = Metabolic stability in human liver microsomes assessed as half life at 1 uM measured up to 45 mins by LC/MS/MS analysis; format: ADME, Microsome
[16] = system: Human immunodeficiency virus 1; test: Antiviral activity against drug-resistant HIV-1 harboring RT Y181C mutant infected in human MT4 cells assessed as protection against virus-induced cytopathicity measured after 5 days post-infection by MTT assay; format: functional, organism-based; conditions: Human immunodeficiency virus 1, MT4, 120 h
[17] = system: Human immunodeficiency virus 1; test: Antiviral activity against drug-resistant HIV-1 harboring RT F227L/V106A mutant infected in human MT4 cells assessed as protection against virus-induced cytopathicity measured after 5 days post-infection by MTT assay; format: functional, organism-based; conditions: Human immunodeficiency virus 1, MT4, 120 h
[18] = system: Human immunodeficiency virus 1; test: Antiviral activity against wild-type HIV-1 IIIB infected in human MT4 cells assessed as protection against virus-induced cytopathicity measured after 5 days post-infection by MTT assay; format: functional, organism-based; conditions: Human immunodeficiency virus 1, IIIB, MT4, 120 h

Row | SMILES | CC50 [1] [µM] | EC50 [2] [µM] | EC50 [3] [µM] | EC50 [4] [µM] | solubility [5] [µg/mL] | recovery at 6 h, 1 µM [6] [%] | t1/2 [7] [min] | metabolised at 0.75 h, 1 µM [8] [%] | metabolised at 0.75 h, 1 µM [9] [%] | IC50 [10] [µM] | half-life at 1 µM [11] [min] | EC50 [12] [µM] | Fm [13] [%] | EC50 [14] [µM] | half-life at 1 µM ([15]; liver microsomes) [min] | t1/2 ([15]; microsomes, 0.75 h, 1 µM) [min] | EC50 [16] [µM] | EC50 [17] [µM] | EC50 [18] [µM]
1 | Cc1cc(C#N)cc(C)c1Oc1nc(Nc2ccc(C#N)cc2)nc(N)c1Br [ETRAVIRINE] | > 4.6 | 0.0365 | 0.0103 | 0.00422 | < 1 | – | – | – | – | – | – | – | – | – | – | – | – | – | –
2 | CC(=O)CC(c1ccccc1)c1c(O)c2ccccc2oc1=O (stereo not drawn) [WARFARIN] | – | – | – | – | – | 96.9 | – | – | – | – | – | – | – | – | – | – | – | – | –
3 | Cc1cc(/C=C/C#N)cc(C)c1Nc1ccnc(Nc2ccc(C#N)cc2)n1 [RILPIVIRINE] | 6.8 | 0.0124 | 0.00314 | 0.00205 | – | – | 7.3 | 44.8 | 13 | 0.02 | 79.3 | 0.054 | 13.3 | 0.00089 | 16 | 16 | 0.00266 | 0.0508 | 0.00127
